Measurements from patent US9119396B2, “Method for promoting plant growth” (SUMITOMO CHEMICAL COMPANY, LIMITED, priority 2011, dated 2015).

What was measured:
Type in all cases: in vivo
[1] = tested on: Rice (cultivar: Nipponbare); test: Test Example 1: promotion of root growth in hydroponics of rice; settings: 1 ppm, 3 days germination + 3 days cultivation, average of 4 or 5 individuals
Procedure: Evaluation Test for Promotion of Root Growth in Hydroponics of Rice Rice (cultivar: Nipponbare) A 1/10,000 volume of each DMSO solution containing each of the present compounds 1 to 4 at 10,000 ppm was added to a Hoagland solution for hydroponics (Hoagland and Amon, California Agricultural Experiment Station 1950 Circular 347 pp. 34) at ¼ concentration to obtain a solution for hydroponics containing each of the present compounds 1 to 4 at 1 ppm. These solutions were used in the treated-group. In a non-treated group, a solution for hydroponics obtained by adding a Hoagland solution for hydroponics at ¼ concentration to a 1/10,000 volume of DMSO was used. The rice seeds were immersed in an aqueous solution of 1% sodium hypochlorite for 10 minutes, followed by 70% ethanol solution to sterilize their surfaces. After that, the seeds were washed with distilled water. The sterilized seeds were immersed in each solution for hydroponics containing the test compound at 1 ppm, and incubated at a temperature of 28° C. for 3 days under dark conditions to stimulate the germination of the seeds. Then, 30 ml of each solution for hydroponics containing the test compound at 1 ppm was dispensed into a plastic tube (20 mm in diameter×113 mm in height) covered with a cardboard on the lateral surface for blocking a light. A float made of a styrene board and a vinyl mesh was placed on the water surface of each solution for hydroponics, and the rice seeds obtained after the stimulation of germination were placed on the float. The seeds were cultivated for 3 days under the conditions of an illuminance of 4,000 lux at the top of the tube, a temperature of 26° C., a humidity of 50%, and a day length of 16 hours. The root length of the rice seedlings obtained after the cultivation was measured by using WinRHIZO system (manufactured by REGENT INSTRUMENTS). The average value of the root length in the treated group was calculated from the measurement values of 4 or 5 individuals. As a result, the root length in the treated group, wherein the plants were treated with the present compound 1, 2, 3 or 4 (at a concentration of 1 ppm in each case), was much longer than that in the non-treated group.

[2] = tested on: Benthamiana tobacco (Nicotiana benthamiana); test: Test Example 9: reduction of low-temperature stress in hydroponics of tobacco; settings: tobacco seedlings, medium with 0.1 ppm compound for 7 days; low-temperature stress 1.5±1.0° C. 7 days, then 3 days at 22° C.
Procedure: Evaluation Test for Reduction of Low-Temperature Stress in Hydroponics of Tobacco (Nicotiana benthamiana) Benthamiana tobacco (Nicotiana benthamiana) DMSO solutions containing each of the present compounds 1, 4 and 5 at a concentration of 100 ppm were prepared. […] These media were used in the treated-group. In a non-treated group, a medium obtained by adding a 1/1,000 volume of DMSO to a Murashige-and-Skoog medium at ½ concentration was used. The seeds of tobacco (Nicotiana benthamiana) were sown on 5 μL of the medium, and incubated at 22° C. overnight. Thereto was added 45 μL of a medium containing each present compound at a concentration of 0.1 ppm, and cultivated for 7 days under the conditions of an illuminance of 4,000 lux, a temperature of 22° C. and a day length of 16 hours, thereby treating the seedlings of tobacco (Nicotiana benthamiana) with the test compound. In the non-treated group, 45 μL of a medium obtained by adding a 1/1,000 volume of DMSO to a Murashige-and-Skoog medium at ½ concentration was added, and treated in the same manner as above. The seedlings of tobacco (Nicotiana benthamiana) treated with the present compounds were cultivated for 7 days under the conditions of an illuminance of 2,000 lux, a temperature of 1.5±1.0° C., and a day length of 16 hours, thereby subjecting to low-temperature stress treatment. The plants of tobacco (Nicotiana benthamiana) subjected to low-temperature stress treatment was cultivated for 3 days under the conditions of an illuminance of 4,000 lux, a temperature of 22° C., and a day length of 16 hours, and then the green leaf area of the plants was visually evaluated. Completely dead plant was scored as 0, the plant without low-temperature stress treatment was scored as 5, the green area was rated on a 6-point scale in ⅕ increments, and the score of not less than 1 was regarded as effective in reducing the stress. As a result of visual evaluation, the green leaf area of plants in the treated group, wherein the plants were treated with the present compound 1, 4 or 5 was much larger than that in the non-treated group.

[3] = tested on: Rice (cultivar: Nipponbare); test: Test Example 8: promotion of root growth in hydroponics of rice; settings: 1 ppm, 3 days germination + 3 days cultivation, average of 4 or 5 individuals
Procedure: Evaluation Test for Promotion of Root Growth in Hydroponics of Rice Rice (cultivar: Nipponbare) A 1/10,000 volume of a DMSO solution containing the present compound 5 at 10,000 ppm was added to a Hoagland solution for hydroponics (Hoagland and Amon, California Agricultural Experiment Station 1950 Circular 347 pp. 34) at ¼ concentration to obtain a solution for hydroponics containing the present compound 5 at 1 ppm. The solution was used in the treated-group. In a non-treated group, a solution for hydroponics obtained by adding a Hoagland solution for hydroponics at ¼ concentration to a 1/10,000 volume of DMSO was used. The rice seeds were immersed in an aqueous solution of 1% sodium hypochlorite for 10 minutes, followed by 70% ethanol solution to sterilize their surfaces. After that, the seeds were washed with distilled water. The sterilized seeds were immersed in the solution for hydroponics containing the test compound at the given concentration, and incubated at a temperature of 28° C. for 3 days under dark conditions to stimulate the germination of the seeds. […] The root length of the rice seedlings obtained after the cultivation was measured by using WinRHIZO system (manufactured by REGENT INSTRUMENTS). The average value of the root length in the treated group was calculated from the measurement values of 4 or 5 individuals. […]

Structure (SMILES): COC(=O)c1cc2c(C(F)(F)F)cccc2s1 [compound 3]
- root length of the rice seedlings vs non-treated group [1]: much longer

Structure (SMILES): COC(=O)c1cc2ccc(C(F)(F)F)cc2s1 [compound 2]
- root length of the rice seedlings vs non-treated group [1]: much longer

Structure (SMILES): COC(=O)c1cc2cccc(C(F)(F)F)c2s1 [compound 4]
- green leaf area of plants (visual evaluation) vs non-treated group [2]: much larger
- root length of the rice seedlings vs non-treated group [1]: much longer

Structure (SMILES): CCOC(=O)c1cc2cc(C(F)(F)F)ccc2s1 [compound 5]
- green leaf area of plants (visual evaluation) vs non-treated group [2]: much larger
- root length of the rice seedlings vs non-treated group [3]: much longer
